Reference: ChEMBL document CHEMBL1201862, “PubChem BioAssay data set” (2004)
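These data come from cells grown in 96-well plates and exposed to compound for 48 hours at five concentrations. Abbreviation: GI50, concentration required for 50% inhibition of growth.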 Calls of active or inactive are those of the source. Cut-off read from the data, not from the text of the source: active = GI50 up to about 1.1 µM and inactive = higher.

Assays:
Assay in all cases: NCI-60 cell line screen, 48 h
UACC-257 = tested on: UACC-257
SK-MEL-28 = tested on: SK-MEL-28
MDA-MB-231 = tested on: MDA-MB-231
M14 = tested on: M14
U-251 = tested on: U-251
SNB-75 = tested on: SNB-75
UO-31 = tested on: UO-31
A498 = tested on: A498
EKVX = tested on: EKVX
T47D = tested on: T47D
TK-10 = tested on: TK-10
Malme-3M = tested on: Malme-3M
RPMI-8226 = tested on: RPMI-8226
NCI-H23 = tested on: NCI-H23
BT-549 = tested on: BT-549
HCC 2998 = tested on: HCC 2998
MDA-N = tested on: MDA-N
IGROV-1 = tested on: IGROV-1
ACHN = tested on: ACHN
HL-60 = tested on: HL-60

Structure (SMILES) | GI50 (UACC-257) | GI50 (SK-MEL-28) | GI50 (MDA-MB-231) | GI50 (M14) | GI50 (U-251) | GI50 (SNB-75) | GI50 (UO-31) | GI50 (A498) | GI50 (EKVX) | GI50 (T47D) | GI50 (TK-10) | GI50 (Malme-3M) | GI50 (RPMI-8226) | GI50 (NCI-H23) | GI50 (BT-549) | GI50 (HCC 2998) | GI50 (MDA-N) | GI50 (IGROV-1) | GI50 (ACHN) | GI50 (HL-60)
O=C(Oc1ccc2c(c1)CN(Cc1ccccc1)CO2)c1ccccc1 | 15.1 µM (inactive) | 21.4 µM (inactive) | 19.2 µM (inactive) | 18 µM (inactive) | 17.3 µM (inactive) | 17.1 µM (inactive) | 17.7 µM (inactive) | 17.3 µM (inactive) | 16.7 µM (inactive) | 21.7 µM (inactive) | 16.2 µM (inactive) | 18.9 µM (inactive) | 20.6 µM (inactive) | 15.8 µM (inactive) | 18.5 µM (inactive) | 14.5 µM (inactive) | 16.8 µM (inactive) | 13.3 µM (inactive) | 18.8 µM (inactive) | –
CCN(CC)CC1CCCCN1CC(=O)N1c2ccccc2NC(=O)CC1C (stereo not given) | > 100 µM (inactive) | > 100 µM (inactive) | > 100 µM (inactive) | > 100 µM (inactive) | > 100 µM (inactive) | – | > 100 µM (inactive) | > 100 µM (inactive) | > 100 µM (inactive) | > 100 µM (inactive) | > 100 µM (inactive) | > 100 µM (inactive) | > 100 µM (inactive) | > 100 µM (inactive) | > 100 µM (inactive) | > 100 µM (inactive) | > 100 µM (inactive) | > 100 µM (inactive) | > 100 µM (inactive) | > 100 µM (inactive)
CN1C(=O)[C@@H]2N(CSC2(C)C)C1=S | > 100 µM (inactive) | > 100 µM (inactive) | > 100 µM (inactive) | > 100 µM (inactive) | > 100 µM (inactive) | > 100 µM (inactive) | > 100 µM (inactive) | > 100 µM (inactive) | > 100 µM (inactive) | > 100 µM (inactive) | > 100 µM (inactive) | – | > 100 µM (inactive) | > 100 µM (inactive) | > 100 µM (inactive) | > 100 µM (inactive) | > 100 µM (inactive) | > 100 µM (inactive) | > 100 µM (inactive) | –
COc1ccc(-c2cc3cc(Cl)cc(Cl)c3oc2=O)cc1OC | 51.1 µM (inactive) | 94.2 µM (inactive) | 62.7 µM (inactive) | 60.3 µM (inactive) | 37.2 µM (inactive) | – | 58.7 µM (inactive) | 79.1 µM (inactive) | 92.9 µM (inactive) | 46.8 µM (inactive) | 44.9 µM (inactive) | 59.8 µM (inactive) | 63.5 µM (inactive) | 36.5 µM (inactive) | 57.3 µM (inactive) | 44.7 µM (inactive) | 94 µM (inactive) | 51.8 µM (inactive) | 37.7 µM (inactive) | > 100 µM (inactive)
COc1ccccc1-c1nc(-c2ccccc2O)n[nH]1 | > 100 µM (inactive) | > 100 µM (inactive) | > 100 µM (inactive) | > 100 µM (inactive) | > 100 µM (inactive) | > 100 µM (inactive) | > 100 µM (inactive) | > 100 µM (inactive) | – | 37.2 µM (inactive) | > 100 µM (inactive) | – | > 100 µM (inactive) | > 100 µM (inactive) | > 100 µM (inactive) | > 100 µM (inactive) | > 100 µM (inactive) | – | > 100 µM (inactive) | > 100 µM (inactive)
COc1cccc(/C=N/n2c(C)n[nH]c2=O)c1 | > 100 µM (inactive) | > 100 µM (inactive) | > 100 µM (inactive) | > 100 µM (inactive) | > 100 µM (inactive) | 58.7 µM (inactive) | > 100 µM (inactive) | 25.5 µM (inactive) | 32 µM (inactive) | > 100 µM (inactive) | – | > 100 µM (inactive) | > 100 µM (inactive) | > 100 µM (inactive) | 92.9 µM (inactive) | > 100 µM (inactive) | > 100 µM (inactive) | – | > 100 µM (inactive) | –
CCOC(=O)c1nc2ccc(C(F)(F)F)cc2nc1NCc1cc(OC)c(OC)c(OC)c1 | > 100 µM (inactive) | 34 µM (inactive) | 60 µM (inactive) | > 100 µM (inactive) | – | 29.1 µM (inactive) | 35.3 µM (inactive) | > 100 µM (inactive) | 60.3 µM (inactive) | 27.6 µM (inactive) | > 100 µM (inactive) | – | 17.7 µM (inactive) | 59.2 µM (inactive) | > 100 µM (inactive) | 57.9 µM (inactive) | 28.4 µM (inactive) | > 100 µM (inactive) | 50.6 µM (inactive) | 33 µM (inactive)
C=C1CCCC(C)(C)[C@H]1C/C=C1\CCOC1=O | 12.1 µM (inactive) | 16.1 µM (inactive) | 17.7 µM (inactive) | 17.5 µM (inactive) | 16.8 µM (inactive) | – | 16.1 µM (inactive) | 17.2 µM (inactive) | 15.9 µM (inactive) | 54.2 µM (inactive) | 19.5 µM (inactive) | 13.5 µM (inactive) | 6.62 µM (inactive) | 14.2 µM (inactive) | 14 µM (inactive) | 23.9 µM (inactive) | 17.9 µM (inactive) | 14.2 µM (inactive) | 15.7 µM (inactive) | 11.5 µM (inactive)
Cc1ccc(-n2nncc2[Si](C)(C)C)s1 | > 100 µM (inactive) | > 100 µM (inactive) | > 100 µM (inactive) | > 100 µM (inactive) | > 100 µM (inactive) | – | > 100 µM (inactive) | > 100 µM (inactive) | – | > 100 µM (inactive) | > 100 µM (inactive) | > 100 µM (inactive) | > 100 µM (inactive) | > 100 µM (inactive) | > 100 µM (inactive) | > 100 µM (inactive) | > 100 µM (inactive) | – | > 100 µM (inactive) | –
Cn1nnnc1SC(F)(F)c1nc2ccccc2o1 | > 100 µM (inactive) | > 100 µM (inactive) | > 100 µM (inactive) | > 100 µM (inactive) | > 100 µM (inactive) | 52.1 µM (inactive) | > 100 µM (inactive) | > 100 µM (inactive) | – | > 100 µM (inactive) | > 100 µM (inactive) | > 100 µM (inactive) | > 100 µM (inactive) | > 100 µM (inactive) | > 100 µM (inactive) | > 100 µM (inactive) | > 100 µM (inactive) | > 100 µM (inactive) | > 100 µM (inactive) | –
COc1cc2nc3n(c2cc1OC)C(O)c1c(Cl)nc(SC)nc1S3 (stereo not given) | 13.1 µM (inactive) | 6.19 µM (inactive) | 4.42 µM (inactive) | 2.67 µM (inactive) | 3.37 µM (inactive) | 4.47 µM (inactive) | 2.99 µM (inactive) | 6.81 µM (inactive) | 15.4 µM (inactive) | 3.8 µM (inactive) | 5.46 µM (inactive) | 1.2 µM (inactive) | 2.16 µM (inactive) | 4.21 µM (inactive) | 2.16 µM (inactive) | 4.21 µM (inactive) | 3.36 µM (inactive) | 2.6 µM (inactive) | 3.3 µM (inactive) | –
COc1ccc2c3c1OC1C(=O)C=CC4(CC2)N(C)CCC314 (stereo not given) | 28.6 µM (inactive) | 22.2 µM (inactive) | 41.2 µM (inactive) | 16.6 µM (inactive) | 19.5 µM (inactive) | 28.1 µM (inactive) | 16.3 µM (inactive) | 13.9 µM (inactive) | 19.6 µM (inactive) | 19.4 µM (inactive) | 27.3 µM (inactive) | 35.1 µM (inactive) | 17 µM (inactive) | 14 µM (inactive) | 23.6 µM (inactive) | 13.8 µM (inactive) | 15.8 µM (inactive) | 23.7 µM (inactive) | 18.9 µM (inactive) | –
CCCCc1ccc(NC(=N)N)cc1 | 33.7 µM (inactive) | 58.2 µM (inactive) | 28.9 µM (inactive) | 24.2 µM (inactive) | 85.3 µM (inactive) | – | 33.6 µM (inactive) | 35.6 µM (inactive) | 30 µM (inactive) | 31.6 µM (inactive) | 22.1 µM (inactive) | 38.8 µM (inactive) | 17 µM (inactive) | 40.2 µM (inactive) | 24.8 µM (inactive) | 16.3 µM (inactive) | 27.7 µM (inactive) | 21.7 µM (inactive) | 36.7 µM (inactive) | 34.1 µM (inactive)
O=C(O)C(Cc1ccccc1)N1C(=O)c2ccccc2C1=O (stereo not given) | > 100 µM (inactive) | 14.4 µM (inactive) | > 100 µM (inactive) | > 100 µM (inactive) | > 100 µM (inactive) | – | > 100 µM (inactive) | > 100 µM (inactive) | 93.1 µM (inactive) | > 100 µM (inactive) | > 100 µM (inactive) | > 100 µM (inactive) | > 100 µM (inactive) | > 100 µM (inactive) | > 100 µM (inactive) | > 100 µM (inactive) | > 100 µM (inactive) | > 100 µM (inactive) | > 100 µM (inactive) | 0.0472 µM (active)
CCCCCCCC/C=C(\Br)C(O)C(Br)Br (stereo not given) | 28 µM (inactive) | 29.2 µM (inactive) | 36.8 µM (inactive) | 22.7 µM (inactive) | 30 µM (inactive) | 36 µM (inactive) | 19.4 µM (inactive) | 31 µM (inactive) | 28.2 µM (inactive) | 31 µM (inactive) | 39.4 µM (inactive) | 21.1 µM (inactive) | 42.7 µM (inactive) | 22.1 µM (inactive) | 22.4 µM (inactive) | 18.8 µM (inactive) | 21.8 µM (inactive) | 24.7 µM (inactive) | 22.3 µM (inactive) | –
